Assay results as given in ChEMBL document CHEMBL3507680, “University of Dundee, Gates Library screen for HepG2 cell viability”.

Test: Human HepG2 cell viability assay in 384 well format
Assay type: toxicity, cell-based
Parameters: dose 125 nL, time 70.5 hour; cytotoxicity at 70.5 h: concentration not given beside the values
Conditions: HepG2 cells, read-out: Inhibition

Structure (SMILES)	cytotoxicity at 70.5 h [%]
Cc1cc(C)c(CNC(=O)NCC(O)COc2ccccc2)c(=O)[nH]1 (configuration not stated)	21.6
Cc1cccc(NC(=O)c2ccc(OCc3nnnn3C)cc2)n1	14.4
CC(C)(C)OC(=O)NCC(=O)NCc1ccc(Cl)s1	-0.913
COc1cccc(CNC(=O)CCNS(=O)(=O)c2ccc(C)cc2)c1	-3.42
O=C(NCC1CC1)[C@H]1C[C@@H]2CN(C(=O)NCc3ccccc3)C[C@H]1O2	11.4
CC(C)(C)c1nnc(CNc2c(F)cccc2-n2cccn2)o1	-8.76
Cc1nc(CN(C)c2nc3c(cnn3C(C)(C)C)c(=O)[nH]2)cs1	8.98
CCC1(c2ccc(NS(=O)(=O)c3cccs3)cc2)CCC(=O)NC1=O (configuration not stated)	-1.8
Cc1c(CN2CC[C@@H](N3CCC(O)CC3)[C@H](O)C2)[nH]c2ccc(F)cc12	-2.56
Cc1ccc(C(=O)N2CC[C@H](Oc3cccnc3C)[C@@H](O)CC2)s1	4.2
COc1ncccc1NC(=O)NC(CCCO)c1ccccc1 (configuration not stated)	11.2
COc1ccc(-c2n[nH]cc2CN(C)CCCN2CCOCC2)c(F)c1	-3.86
COc1ccccc1CNCCc1cccc(C(N)=O)c1	-12.3
O=C(c1ncn2c1CNS(=O)(=O)c1ccccc1-2)N1CCOCC1	13.4
Cn1ccc(C(=O)NCc2cccc(Cn3ccnc3)c2)cc1=O	-4.36
COc1ccc(OCCCN(C)C(=O)C2CCCN2C(N)=O)cc1 (configuration not stated)	-3.9
COc1ccc(CNc2cnn(CC(F)F)c2)cc1	-0.452
COCc1noc(-c2ccc(N3CCCCC3CCCO)nc2)n1 (configuration not stated)	-3.48
OCc1csc(N2CCCC(COc3cccc(F)c3)C2)n1 (configuration not stated)	-9.22
c1ccc(-n2cc(CNCC3CCCN3c3cccnn3)cn2)cc1 (configuration not stated)	-5.35
Cc1nc(C2CCCN(C(=O)c3csc(C)n3)C2)no1 (configuration not stated)	4.29
Cc1cnc(C(=O)N2Cc3ncn(C)c3C(COCC(C)C)C2)cn1 (configuration not stated)	-4.87
CC(=O)N1CC(c2ccnc(Nc3ccc(C)cn3)n2)C1	-4.62

Structure (SMILES)	cytotoxicity at 70.5 h [%]
Cc1noc(C)c1CN1C[C@@H]2COC[C@@H](CC(=O)N3CCCCO3)[C@@H]2C1	-6.43
CC(=O)N1CCN2C[C@H](CO)[C@@H](c3ccccc3)[C@H]2C1	-6.55
CCCc1noc(CCC(=O)N2CCCC2Cn2cc(C)cn2)n1 (configuration not stated)	-10.8
c1cnn(CC2CCCN2Cc2cn3ccsc3n2)c1 (configuration not stated)	6.04
O=C(C1CCOC1)N1CCC2(CCCNC2)CC1 (configuration not stated)	-8.86
CS(=O)(=O)c1ccc2c(c1)N(C(=O)c1cccc(F)c1)CCC2	-4.57
Cc1cc(C)n(CC(=O)N2CCC(NS(C)(=O)=O)CC2)n1	-11.4
Cc1cnc(CCNC(=O)NCCOc2ncccc2Cl)s1	-2.69
OCC1(CC2CC2)CCCN(Cc2ccc(C(F)(F)F)nc2)C1 (configuration not stated)	-6.45
CCCNC(=O)c1cc2c(nc1O)CCC(C)C2 (configuration not stated)	22.8
CCOc1ccc2[nH]c(=O)c(CN3CCCC(CO)(CO)C3)cc2c1	-4.6
Cc1nn(C)c(C)c1C1CCCN1CC(=O)N(C)c1nccs1 (configuration not stated)	-3.66
CCS(=O)(=O)N1Cc2nccn2CC(COc2cccnc2)C1 (configuration not stated)	-2.17
COc1ccc(S(=O)(=O)NCC(O)c2sccc2C)cc1Cl (configuration not stated)	0.182
Cc1cc2c(=O)n3c(nc2s1)CCN(C(=O)c1scnc1C)CC3	-12.5
COc1ccc(Cl)cc1S(=O)(=O)N1C[C@@H]2CC[C@H](C1)N(C)C2=O	6.39
O=C(CCn1cnc2cc(F)c(F)cc21)N1CCN2CCCCC2C1 (configuration not stated)	-1.04
Cc1nc2n(n1)CC(Nc1nc(-c3ccccc3)no1)CC2 (configuration not stated)	-0.185
COc1ccc2c(ccn2CCC(=O)N[C@H](C(=O)O)C(C)C)c1	-8.62
c1cc(CN2CCN(Cc3cscn3)CC2)cs1	-6.89
CCC(C(=O)Nc1ccc(-c2nc(C)n[nH]2)cc1)N1CCCC1=O (configuration not stated)	-9.81
CCCNC(=O)Cn1nc(C)c2cnn(C(C)(C)C)c2c1=O	19.1
Cc1cc(NC(=O)N2CCOCC2)nn1-c1cccc(Cl)c1	-2.25

Structure (SMILES)	cytotoxicity at 70.5 h [%]
O=C(NCCCOC1CCOC1)NC(C1CC1)C1CC1 (configuration not stated)	5.31
CC(C)C1Nc2ccccc2C(=O)N1CC(=O)Nc1nc2c(s1)CCC2 (configuration not stated)	-15.3
CCN(Cc1ccncc1)C(=O)c1cn(CCC2CCCCC2)nn1	-16
COC(=O)c1sccc1S(=O)(=O)N1CCc2c(ncnc2N(C)C)C1	-1.11
Cc1cc(-c2cnc(N3CCNC(=O)C3)nc2-c2ccoc2C)on1	-6.66
CCOCC1CN(C(=O)Cc2ccccn2)Cc2cnn(C)c21 (configuration not stated)	-3.1
O=S(=O)(Nc1cnc(N2CCOCC2)nc1)c1ccc(C(F)(F)F)cc1	2.45
COc1cccc(-c2n[nH]cc2-c2nc(CN3CCCC3)no2)c1	1.58
Cc1csc(N2CCN(C(=O)CCNc3ncccn3)CC2)n1	-11.3
COc1cc(N2CCC3(CCN(Cc4cccnc4)C3=O)C2)ncn1 (configuration not stated)	-4.34
CC1=N[C@@]2(CC[C@@H]3CN(CC(C)C)C[C@@H]32)C(=O)N1	-4.43
CCOC1CC2(CCN(C(=O)COC)CC2)c2cc(F)ccc21 (configuration not stated)	1.7
O=C(CNCC1CCCN1c1cccnn1)NCCc1cccs1 (configuration not stated)	-1.9
CC(C)CC(=O)Nc1ccc(Oc2ccsc2C(=O)O)cc1	1.56
CC(C)(C#N)CCCS(=O)(=O)c1nccn1-c1cccc(F)c1	-10.9
C[C@H]1CN(Cc2cnn(C)c2)C[C@@]12CCN(Cc1cccnc1)C2=O	-7.75
COc1ccccc1OCC(=O)NS(=O)(=O)c1ccc(F)cc1F	-8.29
Cc1nc(C)n(CC2CN(c3nnc(C)c(C)c3C#N)CCO2)n1 (configuration not stated)	5.76
CCn1c(CN(C)C)nnc1C1CCN(Cc2cccc(OC)c2)CC1	4.9
Cc1occc1C(=O)N1CCO[C@H]2[C@H](Oc3cccnc3)CC[C@@H]21	14.6
O=C(Cc1csc(-c2ccccn2)n1)NCCCN1CCCCCC1=O	-76.6
O=C(COCc1ccccc1Cl)N1CCN(c2cnccn2)CC1	-6.52
CO[C@H]1CN(C(=O)OC(C)(C)C)CC1NCc1ccn(C)c1 (some centres not stated)	-6.04

Structure (SMILES)	cytotoxicity at 70.5 h [%]
CC(C)CC(CO)NC(=O)NCc1csc(N(C)C)n1 (configuration not stated)	0.865
COc1cccc(N2CC3(CCN(c4ccncn4)C3)CC2=O)c1 (configuration not stated)	14.6
CN1CC[C@@H]2[C@@H]1CCN2Cc1ccc2c(c1)OCO2	-9.96
O=C(c1ccn(-c2ccccc2Cl)n1)N1CCSCC1	-14.1
O=C(CC1CC1)N1Cc2nccn2CC(Cn2ncccc2=O)C1 (configuration not stated)	-6.18
O=C(c1cscn1)N1CCCC(n2cncn2)C1 (configuration not stated)	-8.94
CC(=O)N1CCN(C(=O)CN2CCc3c(ncn3C3CC3)C2)CC1	6.66
Cc1cc(CN2CCN(C(=O)CCCc3nc(C(C)C)no3)CC2)on1	-8.77
Cc1ccc(NC2CCN(C(=O)c3nccc4ccccc34)CC2)nn1	-4.93
N#Cc1cccc(OCCN2CCCC(c3noc(C4CC4)n3)C2)c1 (configuration not stated)	-5.39
Cc1cccc(CN2Cc3[nH]nc(COCC4CC4)c3C2)n1	3.89
CCNc1ccnc(NC2CCN(S(C)(=O)=O)CC2)n1	-14.6
CCS(=O)(=O)N1C[C@@H](C(=O)NC(C)C)[C@@]2(Cc3ccccc3C(=O)N2)C1	-11.3
CN(C)[C@@H]1CCN(C(=O)C2CCOCC2)[C@H]1Cc1ccncc1	6.4
CCNC(=O)[C@@H]1C[C@@H](NC(=O)c2cccnc2O)CN1Cc1ccsc1	-11.2
Cc1ccc(CN2CCC[C@]3(C(=O)O)CN(CC4CC4)C[C@@H]3C2)s1	-6.54
O=C(NCC(O)c1cccc(F)c1)c1cccnc1O (configuration not stated)	-5.45
CCOCCCNC(=O)CN(c1cccc(F)c1)S(C)(=O)=O	-21.2
CN1CCCC1c1nccnc1-c1ccc(C(=O)O)cc1 (configuration not stated)	11
Cc1ccc(CN2CCOCC3(CCN(Cc4cccs4)C3)C2)o1 (configuration not stated)	0.0959
CCOCCC(=O)N1CCCC(c2ncc[nH]2)C1 (configuration not stated)	-0.67
Cc1cc(CN2CCC3(CC2)C(=O)NCCN3CC2CC2)oc1C	9.39
CN(C)C(=O)c1nnn(-c2ccc(Br)cc2)n1	28.4

Structure (SMILES)	cytotoxicity at 70.5 h [%]
COC(=O)[C@@H]1CN(C(=O)NC(C)C)CCN1S(=O)(=O)c1ccccc1	-2.94
CCCN(C(=O)c1cc2c([nH]c1=O)CCCC2=O)C1CCCCC1	27.9
Cc1ncc(-c2ccncc2)c(C2CCCN(C(=O)c3ccno3)C2)n1 (configuration not stated)	5.49
Cc1cc(CN2CCN(C(=O)c3sccc3C3CC3)CC2)on1	-13.6
CCCN(C)c1ccc(C(=O)NCc2ccnc(C)n2)cc1	-10
Cc1noc(C)c1CCC(=O)Nc1ccn(C)n1	1.75
CCNC(=O)NC(=O)CN1CCC(c2cccc(F)c2)C1 (configuration not stated)	-2.05
CN(C(=O)c1ccco1)c1nc2c(s1)CCCC2	-3.33
CCN(CC)C(=O)CNS(=O)(=O)c1cc(Br)ccc1F	-5.2
Cc1noc(C)c1CN(C)C(=O)c1ccc(C(N)=O)nc1	-5.9
Cc1cc(-c2cnc(N3CCC(O)CC3)nc2-c2cccnc2C)on1	8.43
CC(=O)NCc1nc(CC(C)C)nn1-c1cccc(C)c1	-2.35
Cc1ccc(C2CCCN2S(=O)(=O)N(C)Cc2nccn2C)o1 (configuration not stated)	5.77
COc1ccccc1OC1CN(C(=O)Cc2c(C)nc(N)nc2C)C1	1.7
CCNc1cc2c(nn1)CCN(C(=O)C(C)c1c(C)noc1C)C2 (configuration not stated)	-4.66
Cc1ccccc1C1CCN(C(=O)CCNC(=O)C(C)(C)C)C1 (configuration not stated)	-1.33
CCN1Cc2ccccc2CC2(CCN(CC(=O)O)CC2)C1=O	15.3
CCN(C)C(=O)c1cccc(S(=O)(=O)NCCc2csc(N)n2)c1	19.2
Cc1cc(C(=O)NCc2cccs2)c2c(C3CCCN3)noc2n1 (configuration not stated)	-6.49
CS(=O)(=O)CCNC(=O)c1cc2ccccc2nc1N1CCCC1	-7.07
